Laboratory results: patent publication US20220143210A1, “HYDROGEL COMPOSITIONS AND METHODS FOR TREATEMENT OF MALIGNANCIES” (Fred Hutchinson Cancer Research Center, priority 2019, published 2022)
Entries after “also recorded” stand apart in the source; their conditions may differ.

What was measured:
[1] = test system: GFP+ HGG cells in a 1:1 co-culture with murine macrophages; format: cell-based, human PDX tumor cells, murine macrophages (C57/B6 mouse); conditions: single agent; macrophage species not specified
Protocol: All chemokines were purchased from Sigma-Aldrich. LEAF hCD47 mAb was purchased from eBioscience (cat number, B6H12 clone). Primary murine macrophages were derived from bone marrow of a C57/B6 mouse. Bone marrow derived mononuclear progenitors were cultured in RPMI with CSF-1 for 3 days before freezing/use in assays. Patient-derived xenograft (PDX) were obtained from autopsy or biopsy. PDX lines were cultured in Neuralcult Serum Free (Stem cell tech) with Neuralcult supplement (cat no), 100 U ml-1 PenStrep, Glutamax, EGF and FGF. Cells were grown adherent on tissue-culture treated plates after at least 2 hours of Laminin coating (Sigma-aldrich) in an incubator at 37° C. in 5% CO2. All PDX lines were transduced with H2b-GFP and Luciferase to assist in cell counting and tumor size visualization via IVIS. Xenograft tumors were established in the cortex of female athymic mice nu/nu (Harlan) mice. Tumors were allowed to grow to an IVIS threshold before study enrollment. All mouse studies were carried out following protocols approved by the IACUC at FHCRC (protocol 1457) and complied with all relevant ethical regulations.
Phagocytosis assays were performed using the Basic Analyzer software on Essen Bio's Incucyte Zoom 2016 and S3. […] Using the aforementioned definitions, the Incucyte calculated the reduction of GFP+ nuclei in the wells over time in response to those factors. […]

[2] = test system: GFP+ PDX brain tumor cells (HGG); experiment: In vitro chemotaxis (transwell, Incucyte) assay; format: cell-based, human; conditions: for chemotaxis / migration of PDX brain tumor cells: chemokine gradient, transwell
Protocol: Cell migration assays were performed using the Chemotaxis software on Essen Bio's Incucyte Zoom 2016 and S3. Specialized 96 well transwell plates were supplied by Essen Bio. GFP+ PDX cells were cultured in the aforementioned Neuralcult media without EGF/FGF supplementation. The Incucyte software definitions were trained to identify GFP+ rounded objects spanning the range of healthy nuclei found in my cultures.
It has been hypothesized that it is possible to exploit the migratory behavior of high grade brain tumors by employing chemokine gradients to attract them out of inoperable locations and into a location within the brain that maximizes their exposure to opsonin and macrophages. […] Flow analysis confirms the expression of the requisite chemokine receptors on the HGG line used in our chemotaxis assay, as shown in FIGS. 2A-2C.

[3] = administered intravenously, clinically; cited from earlier work

Molecule	effects on the tumor cells in co-culture [1]	chemotaxis / migration of PDX brain tumor cells [2]	other results
IFNg: M1-polarizing agent	mild effects		
CXCL12: classical immune cell chemokine, purchased from Sigma-Aldrich		induced varying degrees of chemotaxis; also recorded: effective at eliciting migration	
CXCL8: classical immune cell chemokine, purchased from Sigma-Aldrich		induced varying degrees of chemotaxis; also recorded: effective at eliciting migration	
CCOCc1nc2c(N)nc3ccccc3c2n1CC(C)(C)O [R848, reference compound]	mild effects		
CCL2: classical immune cell chemokine, purchased from Sigma-Aldrich		induced varying degrees of chemotaxis; also recorded: effective at eliciting chemotaxis; also recorded: effective at eliciting migration	relative chemotactic potency across PDX lines ([2]; across all lines tested): most potency across all lines tested
IFNg: M1-polarizing agent (protein, UniProt P01579 24-161, looked up) Interferon gamma: QDPYVKEAENLKKYFNAGHSDVADNGTLFLGILKNWKEESDRKIMQSQIVSFYFKLFKNFKDDQSIQKSVETIKEDMNVKFFNSNKKKRDDFEKLTNYSVTDLNVQRKAIHELIQVMAELSPAAKTGKRKRSQMLFRG			systemic toxicity [3]: dramatic systemic toxicity
